Test results reported in paper PMC10895676, “Antiviral Activity of Lipophilic Nucleoside Tetraphosphate Compounds” (Journal of Medicinal Chemistry, 2024).
Entries after “also recorded” stand apart in the source; their conditions may differ.

What follows are molecules tested against T1, human DNA polymerase α (Homo sapiens, UniProt P09884) (assay: Primer extension assay using human DNA polymerase α). Conditions: 60 min, 2 U, 37 °C.
T1 construct: purchased Chimerx
T1 sequence (P09884 1-1462): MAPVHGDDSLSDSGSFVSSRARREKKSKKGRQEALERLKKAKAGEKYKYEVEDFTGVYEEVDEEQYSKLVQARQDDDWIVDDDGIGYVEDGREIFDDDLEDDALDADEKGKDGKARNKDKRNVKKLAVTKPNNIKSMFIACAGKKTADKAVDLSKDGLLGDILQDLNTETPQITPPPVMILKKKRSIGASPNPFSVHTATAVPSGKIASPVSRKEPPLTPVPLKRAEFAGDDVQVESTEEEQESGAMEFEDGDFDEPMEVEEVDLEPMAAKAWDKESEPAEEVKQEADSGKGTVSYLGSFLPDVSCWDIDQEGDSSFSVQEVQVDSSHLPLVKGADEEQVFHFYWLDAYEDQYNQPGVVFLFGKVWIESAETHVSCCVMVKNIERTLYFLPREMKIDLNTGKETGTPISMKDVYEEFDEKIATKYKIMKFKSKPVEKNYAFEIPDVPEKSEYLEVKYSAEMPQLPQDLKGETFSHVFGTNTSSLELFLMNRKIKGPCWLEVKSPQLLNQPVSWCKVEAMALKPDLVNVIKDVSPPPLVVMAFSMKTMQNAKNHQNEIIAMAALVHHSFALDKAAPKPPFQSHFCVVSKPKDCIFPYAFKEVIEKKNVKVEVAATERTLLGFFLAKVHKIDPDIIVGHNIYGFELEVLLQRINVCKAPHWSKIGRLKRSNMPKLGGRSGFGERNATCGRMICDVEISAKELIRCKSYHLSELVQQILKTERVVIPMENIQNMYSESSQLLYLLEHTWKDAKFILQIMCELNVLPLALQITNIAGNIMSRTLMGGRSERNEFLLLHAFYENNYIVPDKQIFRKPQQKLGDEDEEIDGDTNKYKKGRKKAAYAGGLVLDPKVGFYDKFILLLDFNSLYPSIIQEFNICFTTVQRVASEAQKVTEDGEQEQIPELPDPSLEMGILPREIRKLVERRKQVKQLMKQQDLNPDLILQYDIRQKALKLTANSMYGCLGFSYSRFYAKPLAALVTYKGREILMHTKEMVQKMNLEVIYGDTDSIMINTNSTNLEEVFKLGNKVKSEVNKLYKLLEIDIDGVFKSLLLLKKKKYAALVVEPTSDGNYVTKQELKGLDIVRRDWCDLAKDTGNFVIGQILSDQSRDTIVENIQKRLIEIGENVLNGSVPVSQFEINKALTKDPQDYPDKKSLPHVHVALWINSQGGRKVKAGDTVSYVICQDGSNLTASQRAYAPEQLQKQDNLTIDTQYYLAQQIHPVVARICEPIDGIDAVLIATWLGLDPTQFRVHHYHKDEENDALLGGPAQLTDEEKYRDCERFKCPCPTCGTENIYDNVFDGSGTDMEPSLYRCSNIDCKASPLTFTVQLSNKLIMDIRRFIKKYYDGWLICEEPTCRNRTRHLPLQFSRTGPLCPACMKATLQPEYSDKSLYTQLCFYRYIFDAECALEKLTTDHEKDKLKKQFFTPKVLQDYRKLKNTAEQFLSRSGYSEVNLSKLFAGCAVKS
Type: biochemical
Source text: Encouraged by the previously obtained results that γ-phosphate-modified-d4TDPs 3, γ-monoalkylated d4TTP derivatives as well as d4TDP were accepted as substrates by HIV-RT,[49],[50],[55],[59]−[61] δ-dialkylated d4T tetraphosphate analogues 4,5, δ-monoalkylated d4T tetraphosphate analogues 20 and 24 and d4T4P were investigated in primer extension assays in the presence of HIV-RT or the three different human DNA polymerases α, β and γ. D4TTP (for the compounds 4–9) and the natural thymidine triphosphate (TTP) were used as reference compounds.
Figure 6 Primer extension assay using HIV-RT (A), human polymerases α (B), β (C), and γ (D). (Figure 6A). Primer extension assay using HIV-RT (30 min, 6U). Lane 1: (+) dATP, dCTP, dGTP, and TTP with HIV-RT. Lane 2: (−) dATP, dCTP, dGTP, and TTP without HIV-RT. Lane 3: TTP. […] Lane 5: δ-(C4; C18)-d4T4P 4d. […] Lane 7: δ-(C18)-d4T4P 20. Lane 8: δ-C-(C18)-d4T4P 24. Lane 9: d4T4P. Lane 10: d4TTP. Lane 11: d4TDP. HIV-RT assay reaction conditions: 50 mM Tris–HCl (pH 8.6), 10 mM MgCl2, 40 mM KCl, 250 μM dNTPs, HIV-RT (6 U), 0.20 μM DNA hybrid, primer-template-hybrid 0.32 mM in a reaction volume of 10 μL, incubated at 37 °C for 0.5 h, 80 °C for 7 min. Primer extension assays: 50 mA, 45 w for 4 h. (Figure 6B). For human DNA polymerase α assay (60 min, 2 U): Lane 1: (+) dATP, dCTP, dGTP, and TTP with human polymerase α. Lane 2: (−) dATP, dCTP, dGTP, and TTP without human polymerase α. Lane 3: TTP. […] Lane 5: δ-(C4; C18)-d4T4P 4d. […] Lane 7: δ-(C18)-d4T4P 20. Lane 8: δ-C-(C18)-d4T4P 24. Lane 9: d4T4P. Lane 10: d4TTP. Human DNA polymerase α assay conditions: 60 mM Tris–HCl (pH 8), 5 mM Mg(OAc)2, 100 mM KCl, 1.0 mM dithiothreitol, 0.1 mM spermine, 0.01% (w/v) bovine serum albumin, 250 μM dNTPs, 2 U human polymerase α, 0.20 μM DNA hybrid, and primer-template-hybrid 0.32 mM in a reaction volume of 10 μL, incubated at 37 °C for 1 h, 80 °C for 7 min. Primer extension assays: 50 mA, 45 w for 3 h. (Figure 6C). For human DNA polymerase β assay (60 min, 2 U): Lane 1: (+) dATP, dCTP, dGTP, and TTP with human polymerase β. […]

Q: Which “substrate for human DNA polymerase α (primer extension)” value (from here on “substrate for human DNA polymerase α”) does the source give for `Cc1cn([C@H]2C=C[C@@H](COP(=O)(O)OP(=O)(O)OP(=O)(O)OP(=O)(O)O)O2)c(=O)[nH]c1=O` [d4T4P, 2′,3′-didehydro-2′,3′-dideoxythymidine-5′-tetraphosphate] here?
A: nonsubstrates; also recorded: not a substrate

Q: Which “substrate for human DNA polymerase α” value does the source give for `CCCCCCCCCCCCCCCCCCP(=O)(O)OP(=O)(O)OP(=O)(O)OP(=O)(O)OC[C@@H]1C=C[C@H](n2cc(C)c(=O)[nH]c2=O)O1` [compound 24, δ-C-(Alkyl-C18)-d4T4P] here?
A: nonsubstrates

Q: With `CCCCCCCCCCCCCCCCCCOP(=O)(O)OP(=O)(O)OP(=O)(O)OP(=O)(O)OC[C@@H]1C=C[C@H](n2cc(C)c(=O)[nH]c2=O)O1` [compound 20, δ-(Alkyl-C18)-d4T4P] as the molecule, how does the “substrate for human DNA polymerase α” value read?
A: nonsubstrates
